Some test systems named below: BT-549 breast; HT29 colon; LOX IMVI melanoma; MOLT-4 leukemia; NCI-H23 lung; PC-3 prostate; SF-268 CNS; TK-10 renal; U251 CNS; A498 renal.
What all share (test): NCI tumour cell line growth inhibition, 48 h

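Compound exposure: 48 hours, 5 concentrations, 96-well plates. GI50 is the concentration that inhibits growth by half. TGI denotes the concentration required for complete inhibition of growth.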

For the compound `CC(C)(CO)CNc1nc(N)nc(Cl)c1N`, the TGI in the test on BT-549 breast, in the test on HT29 colon, in the test on LOX IMVI melanoma, in the test with MOLT-4 leukemia, with NCI-H23 lung and in the test on PC-3 prostate was more than 100 µM each time. The TGI with SF-268 CNS, in the test with TK-10 renal and with U251 CNS was more than 100 µM each time.
As for `O=C(CC(O)(C(F)(F)F)C(F)(F)F)C(CCCl)C(O)(C(F)(F)F)C(F)(F)F` (stereo unspecified), the TGI in the test with A498 renal was 64.8 µM; with HT29 colon, 91.5 µM; in the test with LOX IMVI melanoma, more than 100 µM; with MOLT-4 leukemia, more than 100 µM; with NCI-H23 lung, 83.9 µM; in the test on PC-3 prostate it was more than 100 µM. Moreover, the TGI in the test on SF-268 CNS, with TK-10 renal and in the test with U251 CNS was more than 100 µM in each case.
In the case of `Cc1ccc(S(=O)(=O)n2cncc2CO)cc1`, the TGI in the test on BT-549 breast, with HT29 colon, in the test with LOX IMVI melanoma, with MOLT-4 leukemia, in the test with NCI-H23 lung and with PC-3 prostate was more than 100 µM in each case. The TGI with SF-268 CNS, with TK-10 renal and in the test with U251 CNS was more than 100 µM throughout.
`CC1(C)O[C@@H](CO)[C@H]([C@@]23OC[C@H]4OC(C)(C)OC4[C@@H]2OC(C)(C)O3)O1` (stereo partly specified): the TGI with HT29 colon, in the test on LOX IMVI melanoma, in the test on MOLT-4 leukemia, in the test with NCI-H23 lung, in the test on PC-3 prostate and with SF-268 CNS was more than 100 µM in each case. Further, the TGI in the test on U251 CNS was more than 100 µM.
Turning to `O=C(c1ccc2ccccc2c1)C1S(=O)(=O)OCCOS1(=O)=O`, the TGI in the test on BT-549 breast, in the test on HT29 colon, with LOX IMVI melanoma, in the test on MOLT-4 leukemia, with NCI-H23 lung and in the test with PC-3 prostate was more than 100 µM in each case. The TGI in the test on TK-10 renal and with U251 CNS was more than 100 µM each time.
As for `O=S1(=O)NNC(=NCc2ccc(Cl)cc2)c2ccccc21`, the TGI in the test on A498 renal, in the test with HT29 colon, with LOX IMVI melanoma, in the test with MOLT-4 leukemia, with SF-268 CNS and with U251 CNS was more than 100 µM in each case.
Take `CN=C(Nn1cnnc1)OC`: the TGI in the test on A498 renal, in the test on HT29 colon, in the test with MOLT-4 leukemia, with NCI-H23 lung, with PC-3 prostate and in the test with U251 CNS was more than 100 µM throughout.
As to `N#Cc1c(NC(=O)c2ccccc2)sc2c1CCC(=O)C2`, the GI50 with A498 renal was 8.83 µM; in the test on HT29 colon, 0.747 µM; in the test on LOX IMVI melanoma, 0.821 µM; with MOLT-4 leukemia, 1.2 µM; with NCI-H23 lung it was 0.768 µM; with PC-3 prostate it was 0.385 µM. Besides, the GI50 in the test on SF-268 CNS is 2.59 µM; with TK-10 renal, 1.98 µM; in the test on U251 CNS, 1.52 µM. The TGI in the test on A498 renal is 41.2 µM; in the test with HT29 colon, more than 100 µM; in the test on LOX IMVI melanoma, 5.97 µM; in the test with MOLT-4 leukemia it was more than 100 µM; with NCI-H23 lung it was 6.99 µM; in the test on PC-3 prostate, 13.3 µM. For the same compound, the TGI with SF-268 CNS was found to be 38.4 µM; in the test with TK-10 renal, 28.7 µM; in the test with U251 CNS, 16.9 µM.
`N#CCCC1C(C#N)C2CC1C1C3C=CC(C3)C21` (stereo unspecified): the TGI with BT-549 breast, in the test on HT29 colon, with LOX IMVI melanoma, in the test on MOLT-4 leukemia, in the test on NCI-H23 lung and with PC-3 prostate was more than 100 µM each time. Besides, the TGI with SF-268 CNS and with TK-10 renal was more than 100 µM each time.
`NC(Cc1cc(I)c(O)c(I)c1)C(=O)O` (stereo unspecified): the TGI was more than 500 µM in the test on A498 renal; more than 393 µM in the test with HT29 colon; more than 361 µM with LOX IMVI melanoma; more than 500 µM with MOLT-4 leukemia; more than 356 µM with NCI-H23 lung; more than 500 µM in the test with SF-268 CNS. The same compound gave a TGI in the test with U251 CNS of more than 500 µM.
Regarding `OC(c1ccc(Cl)cc1)(c1ccc(Cl)cc1)C(O)(c1ccc(Cl)cc1)c1ccc(Cl)cc1`, the GI50 with HT29 colon was 1.72 µM; in the test on MOLT-4 leukemia it was 3.18 µM; in the test on PC-3 prostate, 3.25 µM. For the same compound, the TGI in the test with HT29 colon, in the test on MOLT-4 leukemia and with PC-3 prostate was more than 100 µM each time.
Turning to `Cc1cc2ccccc2n1CC(=O)NCC(C)C`, the TGI in the test with BT-549 breast, in the test on HT29 colon, with LOX IMVI melanoma, in the test on MOLT-4 leukemia, with NCI-H23 lung and with PC-3 prostate was more than 100 µM in each case. Further, the TGI with SF-268 CNS, in the test on TK-10 renal and with U251 CNS was more than 100 µM throughout.
For the compound `COC(=O)c1ccc(-c2nc(C#N)c(N)o2)cc1`, the TGI with BT-549 breast, in the test on HT29 colon, in the test with LOX IMVI melanoma, in the test with MOLT-4 leukemia, in the test on NCI-H23 lung and with PC-3 prostate was more than 100 µM throughout. The TGI with SF-268 CNS, in the test with TK-10 renal and with U251 CNS was more than 100 µM throughout.
As for `COC(=O)[C@H](C)N1C(=O)N[C@@H](C(C)C)C1=O`, the TGI in the test on BT-549 breast, with HT29 colon, in the test on LOX IMVI melanoma, with MOLT-4 leukemia, in the test with NCI-H23 lung and with PC-3 prostate was more than 100 µM each time. Moreover, the TGI in the test with TK-10 renal and in the test with U251 CNS was more than 100 µM throughout.
Take `CC1(C)COC(c2cccc(C3=NC(C)(C)CO3)c2Br)=N1`: the TGI in the test with BT-549 breast, in the test with HT29 colon, in the test on LOX IMVI melanoma, with MOLT-4 leukemia, in the test with NCI-H23 lung and in the test with PC-3 prostate was more than 100 µM throughout. Further, the TGI in the test on SF-268 CNS, in the test with TK-10 renal and in the test with U251 CNS was more than 100 µM each time.
Take `CN(C)CCOC(=O)COc1ccc(Cl)cc1`: the TGI with A498 renal, with HT29 colon, in the test with LOX IMVI melanoma, with MOLT-4 leukemia, in the test with NCI-H23 lung and in the test with PC-3 prostate was more than 100 µM in each case. Also, the TGI with SF-268 CNS and in the test on U251 CNS was more than 100 µM in each case.
Take `CCCCCc1cc2c(cc1O)CC[C@@H]1[C@@H]2CC[C@]2(C)[C@@H](O)CC[C@@H]12`: the TGI in the test on A498 renal stood at 36.1 µM; in the test on HT29 colon, 41.2 µM; with LOX IMVI melanoma, 39.2 µM; with MOLT-4 leukemia, 85.3 µM; in the test with NCI-H23 lung, 40.3 µM; in the test with PC-3 prostate, 33.1 µM. Further, the figures for the TGI with SF-268 CNS, in the test with TK-10 renal and in the test with U251 CNS were 38.9 µM, 34 µM and 38.1 µM, respectively.
As for `Cc1c2c3cc(O)ccc3nc-2n(C)c2ccccc12`, the TGI worked out at 8.52 µM in the test with BT-549 breast; 7.26 µM in the test on HT29 colon; 3.32 µM in the test on MOLT-4 leukemia; 8.61 µM in the test on NCI-H23 lung; 5.94 µM in the test on PC-3 prostate; 8.02 µM in the test on SF-268 CNS. For the same compound, the values for the TGI with TK-10 renal and in the test with U251 CNS were 9.82 µM and 6.91 µM, respectively.
For `CC(NC(=O)/C(=C/c1ccccc1O)NC(=O)c1ccccc1)C(=O)O` (stereo unspecified), the TGI with A498 renal was more than 100 µM; in the test on BT-549 breast, 50.2 µM; with HT29 colon it was more than 100 µM; in the test on LOX IMVI melanoma it was more than 100 µM; in the test on MOLT-4 leukemia, more than 100 µM; in the test with NCI-H23 lung, more than 100 µM. Moreover, the TGI with SF-268 CNS is 32.9 µM; in the test with TK-10 renal it was more than 100 µM; with U251 CNS, more than 100 µM.
With `O=c1[nH]c(=O)n(C2OC(COP(=O)(O)OP(=O)(O)O)C(O)C2O)cc1F` (stereo unspecified), the TGI with A498 renal is more than 50 µM; with HT29 colon, more than 50 µM; in the test on LOX IMVI melanoma, 23 µM; with MOLT-4 leukemia it was more than 50 µM; in the test with NCI-H23 lung it was more than 50 µM; in the test on SF-268 CNS, more than 50 µM. The TGI with TK-10 renal was more than 50 µM; in the test with U251 CNS, more than 25.2 µM.
`C#CCNC(Cc1cnc[nH]1)C(=O)O` (stereo unspecified): the TGI in the test on A498 renal, with HT29 colon, in the test on LOX IMVI melanoma, in the test on MOLT-4 leukemia, in the test with PC-3 prostate and in the test on SF-268 CNS was more than 100 µM in each case. Further, the TGI with TK-10 renal and in the test with U251 CNS was more than 100 µM in each case.
Regarding `OC1CCCC1C(O)(C(F)(F)F)C(F)(F)F` (stereo unspecified), the TGI with A498 renal, in the test with HT29 colon, in the test with LOX IMVI melanoma, in the test on MOLT-4 leukemia, in the test with NCI-H23 lung and in the test on PC-3 prostate was more than 100 µM throughout. In addition, the TGI in the test with SF-268 CNS, in the test with TK-10 renal and with U251 CNS was more than 100 µM throughout.
For the compound `COc1cc(C2C3=C(CCC3=O)Oc3cc4c(cc32)OCO4)cc(OC)c1OC` (stereo unspecified), the TGI in the test on HT29 colon was more than 100 µM; with LOX IMVI melanoma, more than 100 µM; in the test on NCI-H23 lung, more than 100 µM; in the test with TK-10 renal, 69.2 µM; in the test on U251 CNS it was more than 100 µM.
Take `O=C1NC(=S)N/C1=C/c1ccccc1O`: the TGI in the test on BT-549 breast, in the test with HT29 colon, in the test with LOX IMVI melanoma, with MOLT-4 leukemia, in the test on NCI-H23 lung and in the test with PC-3 prostate was more than 100 µM throughout. Also, the TGI with SF-268 CNS, with TK-10 renal and in the test with U251 CNS was more than 100 µM in each case.

(Values after PubChem BioAssay (NCI).)
